Data published in US8119689B2, “Adjuvants on the basis of bisacyloxypropylcystene conjugates and derivatives and their uses in pharmaceutical compositions” (Helmholtz-Zentrum Fuer Infektionsforschung GmbH, priority 2005, dated 2012).

Key:
[1] = test system: primary bone marrow-derived dendritic cells; experiment: In vitro stimulation of primary bone marrow-derived murine dendritic cells, surface markers by flow cytometry; assay type: cell-based, BALB/c mice; details: concentration enhanced to 100 ng/ml (not shown)
Protocol: FIG. 1: FIGS. 1A-1C show the results for In vitro studies using primary dendritic cells. Primary bone marrow-derived dendritic cell cultures were obtained from BALB/c mice by in vitro maturation of precursors using recombinant GM-CSF (5×10^4 U/ml). Mature dendritic cells were stimulated with 10 ng/ml of E. coli lypopolysaccharide (LPS) or 50 and 100 ng/ml of BPPcysGlyc4armPEG and BPPcysAda, respectively. Then, cells were double-labeled with antibodies specific for CD11c (dendritic cell marker) in combination with anti-CD40, anti-CD54, anti-CD80, anti-CD86, anti-MHC class 1, or anti-MHC class 11 antibodies. The expression of CD40, CD80, CD54, CD86, anti-MHC class 1, and MHC class 11 in CD11c-gated cells were analyzed by flow cytometry.
Experimental protocol: primary bone marrow-derived dendritic cell cultures were obtained from BALB/c mice following in vitro maturation of precursors in the presence of recombinant GM-CSF (5×10^4 U/ml), according to established protocols. Mature dendritic cells were stimulated with 10 ng/ml of E. coli lypopolysaccharide (LPS) or 5 ng/ml of BPPcysGlyc4armPEG, after 12, 24 and/or 48 h stimulation cells were analyzed by flow cytometry to assess the expression of surface markers which are relevant for their antigen presentation capacity.
In order to identify compounds which may have potential as adjuvants for in vivo applications in the vaccinology field, a first in vitro screening based on the used of primary cultures of bone marrow-derived dendritic cells was established. Dendritic cells were selected since they represent the most efficient antigen presenting cells and they play a key role by primary immune responses. In fact, they are the only cell type able to activate resting T cells initiating primary immune responses in vivo. Thus, dendritic cell cultures were treated with the tested moieties or LPS, which was used as a positive control. At different time intervals, samples were taken, stained with fluorescent-labeled antibodies specific for cellular markers critical for the antigen presenting capacities of dendritic cells, and analyzed by flow cytometry.
To test the stimulatory capacity of BPPCysAda on maturation and activation of bone marrow-derived DC, immature DC's were stimulated in vitro with BPPCysAda. Surface markers on CD11c+-gated DC were investigated by FACS analysis after 16 or 40 h pre-treatment.

[2] = test system: peritoneal macrophages from C3H/HeJ mice; experiment: Nitrogen monoxide release assay (macrophage activation); assay type: cell-based; details: 25 mM octylglucoside in first dilution step
Protocol: NO release of restimulated macrophages using different concentrations (serial dilutions) of the macrophage activator BPPcysGlyc4armPEG as adjuvant. As positive control, the NO release of macrophages in response to serial dilutions of Malp-2 and in response to 4armPEG molecules (negative control) are shown.
In brief, peritoneal macrophages from C3H/HeJ mice were used as the macrophage source. They were cultured in 96-well microtiter plates and stimulated simultaneously with rIFN-γ and a serial dilution of macrophage activator. Insofar as necessary (i.e. R-Malp-2/standard), the macrophage activators were dissolved in 25 mM octylglucoside in the first dilution step and then diluted further with medium. After an incubating time of 45-48 hours, the nitrate was reduced with nitrate reductase and the starting substance nitrogen monoxide was determined, as the sum of nitrate and nitrite, using Griess' reagent. 1 unit (U)/ml is defined as the dilution at which half-maximal stimulation takes place.

[3] = test system: β-gal antigen-specific IgG isotypes; experiment: β-gal-specific IgG isotypes in sera of immunized mice (isotype ELISA); assay type: in vivo; details: after intranasal and after parenteral administration
Protocol: FIG. 8: FIG. 8 provides the analysis of beta-Gal specific IgG isotypes in sera of immunized mice. Anti-beta-Gal specific IgG isotypes of the groups immunized with PBS, (control) beta-Gal+either BPPcysGlyc4armPEG or BPPcysPEG (FIG. 8A) or BPPcysAda or Ada alone (FIG. 8B), or beta-Gal alone of mice immunized by the i.n. or s.c. route were determined by ELISA. Results are expressed as end point titers. IgG titers represent the mean of five animals per experimental group. Differences were statistically significant at p<0.05 (*) with respect to mice receiving antigen alone. One representative out of four independent experiments is shown. SEM is indicated by vertical lines.
Isotyp ELISA: 96-well Nunc-Immuno MaxiSorp assay plates (Nunc, Roskilde, Denmark) were coated with 100 μl of β-gal (Boehringer, Mannheim, Germany) at 5 μg/ml in 0.05 M carbonate buffer (pH 8.2) per well. Serial two-fold dilutions of sera or lavages in PBS with 1% BSA and 0.05% Tween 20 were added (100 μl/well), and plates incubated for 2 h at 37° C. After washing, biotin-conjugated rat anti-mouse IgG1 or IgG2a (Pharmingen, Hamburg, Germany) were added to determine IgG subclasses. Plates were incubated for an additional 1 h at 37° C. After four washes, 100 μl of peroxidase-conjugated streptavidin (Pharmingen) was added to cells and plates incubated at 37° C. for 30 min. After four washes, reactions were developed with ABTS in 0.1 M citrate-phosphate buffer (pH 4.35) containing 0.01% H2O2. To determine the concentration of IgG subclasses in serum, standard curves were obtained by coating the wells with an isotype-specific goat anti-mouse IgG, and then by incubating with purified mouse IgG1 or IgG2a antibodies (Dianova, Hamburg, Germany).

Row | Compound | differences in the expression of surface markers when concentration enhanced [1] | effect of adding a solubilizer (octylglucoside) on macrophage activation [2] | antigen-specific antibody response [3]
1 | MALP-2 [reference compound] | No differences | required | –
2 | Nc1ncnc2c1ncn2[C@@H]1O[C@@H]2COP(=O)(O)O[C@H]3[C@@H](O)[C@H](n4cnc5c(N)ncnc54)O[C@@H]3COP(=O)(O)O[C@H]2[C@H]1O [c-diAMP] | – | – | strong antigen-specific antibody response
